The results in this text go back to patent US7205311B2, “Therapeutic acridone and acridine compounds” (Cancer Research Technology Limited, priority 2002, dated 2007).

The subject of one data set is telomerase. Briefly: Modified telomeric repeat amplification protocol (TRAP) assay, cell-free. In kind it is biochemical. Particulars: extracts from A2780 human ovarian carcinoma cells, salts, read-out: telIC50. On the procedure: The ability of compounds to inhibit telomerase in a cell-free assay was assessed with a modified TRAP assay using extracts from exponentially growing A2780 human ovarian carcinoma cells. The TRAP assay was performed in 2 steps: (a) telomerase-mediated extension of the forward primer (TS: 5′-AATCCGTCGAGCAGAGTT, Oswel Ltd., Southampton, UK) contained in a 40 μL reaction mix comprising TRAP buffer (20 mM Tris-HCl (pH 8.3), 68 mM KCl, 1.5 mM MgCl2, 1 mM EGTA, 0.05% v/v Tween 20), 0.05 μg bovine serum albumin, 50 μM of each deoxynucleotide triphosphate, 0.1 μg TS primer, and […] of [α-^32P]dCTP (Amersham pic, UK). Protein (40 ng or 20 ng) was then incubated with the reaction mix+agent (acid addition and quaternary dimethiodide salts) at final concentrations of up to 50 μM for 20 min at 25° C. A lysis buffer (no protein) control, heat-inactivated protein control, and 50% protein (20 ng or 10 ng) control were included in each assay; and (b) while heating at 80° C. in a PCR block of a thermal cycler (Hybaid, UK) for 5 min to inactivate telomerase activity, 0.1 μg of reverse CX primer (3′-[…]-5′) and 2 Units of Taq DNA polymerase (“red hot”, Advanced Biotechnologies) were added. A 3-step PCR was then performed: 94° C. for 30 s, 50° C. for 30 s, and 72° C. for 1 min for 31 cycles. Telomerase-extended PCR products in the presence or absence of compounds were then determined either by electrophoretic separation using 8% w/w acrylamide denaturing gels and analysis by phosphorimaging or autoradiography, or by harvesting on Whatman filters (25 mm glass microfibre) and analysis by liquid scintillation counting.

Data set [1] can be described thus: Growth inhibition, sulforhodamine B (SRB) assay. The class given is cell-based. Conditions: human, salts. On the procedure:
(§1) Growth inhibition was measured in three human ovarian carcinoma cell lines (A2780, CH1, and SKOV-3) and one human cervix carcinoma cell line (A431) using the sulforhodamine B (SRB) assay. Briefly, between 3000 and 6000 cells were seeded into the wells of 96-well microtiter plates and allowed to attach overnight. Compounds (acid addition and quaternary dimethiodide salts) were dissolved at 500 μM in water and immediately added to wells in quadruplicate at final concentrations of 0.05, 0.25, 1, 5 and 25 μM. Following an incubation period of 96 hr, remaining cells were fixed with ice-cold 10% w/v trichloroacetic acid (30 min) and stained with 0.4% SRB in 1% v/v acetic acid (15 min). Mean absorbance at 540 nm for each drug concentration was expressed as a percentage of the control untreated well absorbance, and IC50 values (concentration required to inhibit cell growth by 50%) were determined for each agent.
(In general: Sulforhodamine B stains cellular protein and so reports cell mass.)

The nature of data set [2]: Growth inhibition, SRB assay, mean over the four cell lines. Conditions: human, mean of A2780, CH1, SKOV-3, A431, 96 hr incubation, salts, read-out: Cytotoxicity - IC50, mean value for the four (4) cell lines. In kind it is cell-based. On the procedure:
as §1

Setting [3] is: A431 cervix carcinoma cells, A431, 96 hr incubation, read-out: Cytotoxicity - IC50 A431.
Setting [4] is: A2780 ovarian carcinoma cells, A2780, 96 hr incubation, read-out: Cytotoxicity - IC50 A2780.
Setting [5] is: CH1 ovarian carcinoma cells, CH1, 96 hr incubation, read-out: Cytotoxicity - IC50 CH1.
[6] abbreviates: SKOV-3 ovarian carcinoma cells, SKOV-3, 96 hr incubation, read-out: Cytotoxicity - IC50 SKOV-3.

As for `CN(C)CCCNc1ccc2cc3ccc(NCCCN(C)C)cc3nc2c1` [SB-ACI-04, 3,6-Bis[(N,N-dimethylaminopropyl)amino]acridine], in the data set with telomerase, the IC50 is 200 nM. The IC50 at 96 h in data set [1] (setting [3]) was determined as 700 nM; in data set [1] (setting [4]) it was 1800 nM; in data set [1] (setting [5]), 2000 nM; in data set [1] (setting [6]) it was 3900 nM.

On to `CCN(CC)CCNc1ccc2cc3ccc(NCCN(CC)CC)cc3nc2c1` [SB-ACI-05, 3,6-Bis[(N,N-diethylaminoethyl)amino]acridine], for which the IC50 with telomerase was 540 nM. Further, the IC50 at 96 h was found to be 200 nM in data set [1] (setting [3]), 100 nM in data set [1] (setting [4]), 200 nM in data set [1] (setting [5]) and 700 nM in data set [1] (setting [6]).

As for `CC(C)N(CCNc1ccc2cc3ccc(NCCN(C(C)C)C(C)C)cc3nc2c1)C(C)C` [SB-ACI-06, 3,6-Bis[(N,N-diisoproyplaminoethyl)amino]acridine], the IC50 in the data set on telomerase was 590 nM. In addition, the IC50 at 96 h in data set [1] (setting [3]) worked out at 1000 nM; in data set [1] (setting [4]) it was 400 nM; in data set [1] (setting [5]), 600 nM; in data set [1] (setting [6]), 1300 nM.

As to `CN(C)CCNc1ccc2cc3ccc(NCCN(C)C)cc3nc2c1` [SB-ACI-10, 3,6-Bis[(N,N-dimethylaminoethyl)amino]acridine], in the data set with telomerase, the IC50 is 480 nM. In addition, the IC50 at 96 h in data set [1] (setting [3]) stood at 200 nM; in data set [1] (setting [4]) it was 200 nM; in data set [1] (setting [5]), 100 nM; in data set [1] (setting [6]), 200 nM.

Regarding `c1cc2cc3ccc(NCCCN4CCCC4)cc3nc2cc1NCCCN1CCCC1` [SB-ACI-23, 3,6-Bis[(3-pyrolidino)propylamino]acridine], in the data set with telomerase, the IC50 amounted to 181 nM. The IC50 at 96 h in data set [2] came to 1600 nM.

Turning to `CCN(CC)CCCNc1ccc2cc3ccc(NCCCN(CC)CC)cc3nc2c1` [SB-ACI-24, 3,6-Bis[(3-diethylamino)propylamino]acridine], in the data set with telomerase, the IC50 amounted to 222 nM. Besides, the IC50 at 96 h in data set [2] stood at 1800 nM.

For `c1cc2cc3ccc(NCCCN4CCCCC4)cc3nc2cc1NCCCN1CCCCC1` [SB-ACI-25, 3,6-Bis[(3-piperidino)propylamino]acridine], the IC50 in the data set with telomerase came out at 218 nM. Moreover, in data set [2], the IC50 at 96 h stood at 500 nM.

In the case of `c1cc2cc3ccc(NCCCCN4CCCC4)cc3nc2cc1NCCCCN1CCCC1` [SB-ACI-26, 3,6-Bis[(4-pyrolidino)butylamino]acridine], the IC50 in the data set on telomerase was determined as 153 nM. Besides, the IC50 at 96 h in data set [2] worked out at 2500 nM.

In the case of `c1ccc(NCCCNc2ccc3cc4ccc(NCCCNc5ccccc5)cc4nc3c2)cc1` [SB-ACI-27, 3,6-Bis[(3-phenylamino)propylamino]acridine], the IC50 with telomerase turned out to be 16800 nM. For the same molecule, the IC50 at 96 h in data set [2] amounted to 1700 nM.

With `CCN(CC)CCCCNc1ccc2cc3ccc(NCCCCN(CC)CC)cc3nc2c1` [SB-ACI-28, 3,6-Bis[(4-diethylamino)butylamino]-acridine], the IC50 with telomerase was 205 nM. In data set [2], the IC50 at 96 h turned out to be 6300 nM.
